Data set [1] in a line: Pharmacokinetics of compounds in rats (oral). It is filed as in vivo, SD rats. The settings on record: for AUC / Cmax: male SD rats. The protocol: Male SD rats were purchased from Shanghai SIPPR-Bk Lab Animal Co., Ltd. Each test compound was administered orally (3 rats per group) once to SD rats for pharmacokinetic study. The test compounds were prepared on the day of administration. The test compounds were suspended in 5% DMSO+95% saline, and then vortexed for 2 min and ultrasonicated for 5 min to prepare the administration system. The animals were fasted for 10-14 h before oral administration, and the feeding was resumed 4 h after administration. After oral administration by gavage, pharmacokinetic samples were collected from SD rats through the jugular vein. The collection time points were: before administration, 15 min, 30 min, 1 h, 2 h, 4 h, 6 h, 8 h and 24 h after administration. Three whole blood samples were collected at each time point, with a collection volume of about 0.2 mL, and anticoagulated with sodium heparin. After blood samples were collected, they were immediately placed on ice and centrifuged to separate plasma within 1 hour (centrifugation conditions: 6800 rpm, 6 min, 2-8° C.). The collected plasma was stored in a −80° C. refrigerator before analysis.

For data set [2], the system named is ASPC-1 cells. The data set can be described thus: 3D cell proliferation inhibition test (CellTiter-Glo), ASPC-1 cells. It is filed as cell-based. The note with it: 7 days, read-out: ASPC-1 cells 3D CTG IC50. As to the method:
(§1) The diluted compounds to be tested were added to 384-well low-adhesion cell culture plates by using a nanoliter pipetting system (LABCYTE, P-0200). Then, the cells were plated and incubated in a 37° C., […] incubator for 7 days. Afterward, CellTiter-Glo® […] reagent was added, and the luminescent values were read by an Envision multifunctional microplate reader (the luminescent signal is proportional to the amount of ATP in the system, and the ATP content directly represents the number of viable cells in the system). Finally, the IC50 values (half-maximal inhibitory concentration) of the compounds were obtained by the XLFIT software using the nonlinear fitting formula.
(§2) a) The diluted compounds to be tested were added to 384-well low-adsorption cell culture plates by using a nanoliter pipetting system.
(§3) b) Cells were seeded into the 384-well plates in a) and then centrifuged at 1000 rpm for 1 min at room temperature, with a final DMSO concentration of compound being 0.5%. The plates were then incubated in a 37° C., 5% CO2 constant temperature incubator for 7 days.
(§4) c) CellTiter-Glo® 3D was added to the 384-well cell culture plates in b), shaken in the dark, and incubated at room temperature.
(§5) d) The luminescence values were read by using an Envision multifunctional microplate reader.
(§6) The IC50 (half-maximal inhibitory concentration) values of the compounds were obtained by using XLFIT software according to the following nonlinear fitting formula:
(§7) [formula] • X: log value of compound concentration. • Y: inhibition rate (%)
(§8) Inhibition rate (%)=100×(average value of negative control−compound)/(average value of negative control−average value of positive control)
(§9) Positive control: Medium only.
A general note: In ATP-based viability assays light output follows the ATP content of the culture.

Data set [3] concerns GP2d cells. The data set can be described thus: 3D cell proliferation inhibition test (CellTiter-Glo), GP2d cells. The settings on record: 7 days, read-out: GP2d cells 3D CTG IC50. It is filed as cell-based. As to the method: as §1, §2, §3, §4, §5, §6, §7, §8, §9
Data set [4] relates to KRas G12D-mediated ERK phosphorylation. Nature of the data set: Inhibition of KRas G12D-mediated ERK phosphorylation in AGS cells. It is filed as cell-based. The note with it: read-out: AGS-pERK IC50. The protocol: Day 1: AGS cells were seeded into 384-well cell culture plates and cultured overnight in a 37° C., 5% CO2 incubator.
Day 2: The compounds were added to the plates using Echo550 and incubated for 3 h in a 37° C., 5% CO2 incubator. Then cells were fixed with paraformaldehyde, permeated with methanol, and blocked with the blocking solution. Finally, a mixed solution of primary antibodies (rabbit anti pERK, mouse anti GAPDH) was added, and the mixture was incubated at 4° C. overnight.
Day 3: The mixed solution of primary antibodies was discarded, and a mixed solution of secondary antibodies (goat anti rabbit 800CW, goat anti mouse 680RD) was added. The mixture was incubated at room temperature in the dark. Finally, the cell culture plate was washed with PBST, and then inverted for 1 minute of centrifugation. The fluorescence signal values were read with Odyssey CLx.
ERK phosphorylation was calculated according to the following formula: […]
X: log value of compound concentration.
Y: average value of relative expression of p-ERK between replicate wells.

[5] abbreviates: male, SD, rat, plasma, po, 100 mg/kg, 100 mg/kg, read-out: AUC.
[6] abbreviates: male, SD, rat, plasma, po, 100 mg/kg, 100 mg/kg, read-out: Cmax.

Broadly, the AUC is the area under the concentration-time curve, a measure of exposure. As usually defined, the Cmax is the maximum level reached in the sampled fluid or tissue. For orientation: IC50 means the concentration at which inhibition is half-maximal.

Like-named read-outs stand apart in the source and are kept apart here.

Turning to `Nc1cc(Cl)c(C(F)(F)F)c(-c2ncc3c(N4C[C@H]5CC[C@@H](C4)N5)nc(OCC45CCCN4C(c4ccc6c(c4)OC(F)(F)O6)CC5)nc3c2F)c1` (stereo partly drawn) [Example 161, 3-(4-((1R,5S)-3,8-diazabicyclo[3.2.1]octan-3-yl)-2-((3-(2,2-difluorobenzo[d][1,3]dioxy-5-yl)tetrahydro-1H-pyrrolizin-7a(5H)-yl)methoxy)-8-fluoropyridin[4,3-d]pyrimidin-7-yl)-5-chloro-4-(trifluoromethyl) aniline], the AUC in data set [1] (100 mg/kg) came to 1080 ng·h/mL. In data set [1] (100 mg/kg), this compound displayed a Cmax of 193 ng/mL. In addition, the results for the IC50 in data set [2] and in data set [3] were 46.9 nM and 10.9 nM, respectively.

As to `C#Cc1c(F)ccc2cc(O)cc(-c3ncc4c(N5CC6CCC(C5)N6)nc(OCC56CCCN5C(c5ccc7c(c5)C5CCC7O5)CC6)nc4c3F)c12` (centres unmarked) [Example 192], the IC50 came to 1.8 nM in data set [4] (Homo sapiens, AGS); 12.2 nM in data set [2] (Homo sapiens, ASPC1, 168 h); 3.51 nM in data set [3] (168 h). In addition, the AUC in data set [1] (setting [5]) amounted to 284 ng·h/mL. Besides, in data set [1] (setting [6]), the Cmax turned out to be 96 ng/mL.

With `C#Cc1c(F)ccc2cc(O)cc(-c3ncc4c(N5CC6CCC(C5)N6)nc(OC[C@@]56CCCN5C[C@H](F)C6)nc4c3F)c12` [MRTX1133, reference compound], the IC50 in data set [4] was found to be 1.2 nM; in data set [2], 10.9 nM; in data set [3], 1.38 nM. In data set [1] (SD rats), the “oral pharmacokinetics (Cmax and AUC)” value is on record as “extremely poor”. Further, the results for the AUC entry in data set [1] (10 mg/kg) and in data set [1] (100 mg/kg) were “No parameter” and 70 ng·h/mL, respectively. Besides, the results for the Cmax in data set [1] (10 mg/kg) and in data set [1] (100 mg/kg) were 1 to 2 ng/mL and 26 ng/mL, respectively.

As to `Oc1cc(-c2ncc3c(N4CC5CCC(C4)N5)nc(OCC45CCCN4[C@@H](c4ccc(C(F)(F)F)c(F)c4)CC5)nc3c2F)c2c(F)c(F)ccc2c1` (mixture of isomers) [Example 225], the IC50 is 1.5 nM in data set [4] (Homo sapiens, AGS); 11.1 nM in data set [2] (Homo sapiens, ASPC1, 168 h); 1.49 nM in data set [3] (168 h). For the same compound, the AUC in data set [1] (setting [5]) stood at 380 ng·h/mL. The Cmax in data set [1] (setting [6]) was 54 ng/mL.

For the compound `Oc1cc(-c2ncc3c(N4C[C@H]5CC[C@@H](C4)N5)nc(OCC45CCCN4C(c4ccc6c(c4)OC(F)(F)O6)CC5)nc3c2F)c2c(F)c(F)ccc2c1` (stereo partly drawn) [Example 142, 4-(4-((1R,5S)-3,8-diazabicyclo[3.2.1]octan-3-yl)-2-((3-(2,2-difluorobenzo[d][1,3]dioxy-5-yl)tetrahydro-1H-pyrrolizin-7a(5H)-yl)methoxy)-8-fluoropyrido[4,3d]pyrimidin-7-yl)-5,6-difluoronaphthalen-2-ol], the IC50 in data set [4] is 0.83 nM; in data set [2], 13.9 nM; in data set [3], 1.15 nM. Also, the AUC in data set [1] (100 mg/kg) was 404 ng·h/mL. The compound further yielded a Cmax in data set [1] (100 mg/kg) of 96 ng/mL.

For `Oc1cc(-c2ncc3c(N4CC5CCC(C4)N5)nc(OCC45CCCN4[C@@H](c4cc(F)c(F)c(F)c4)CC5)nc3c2F)c2c(F)c(F)ccc2c1` (single isomer, unassigned) [Example 223], the IC50 worked out at 0.74 nM in data set [4]; 3.09 nM in data set [2] (Homo sapiens, ASPC1, 168 h); 0.67 nM in data set [3] (168 h). For the same compound, the AUC in data set [1] (100 mg/kg) is 404 ng·h/mL. The compound also registered a Cmax in data set [1] (100 mg/kg) of 260 ng/mL.

For the origin of these results see patent publication US20250206759A1, “FUSED RING COMPOUND, PHARMACEUTICAL COMPOSITION CONTAINING SAME, AND USE OF FUSED RING COMPOUND” (CHENGDU HYPERWAY PHARMACEUTICALS CO., LTD., priority 2022, published 2025).
